Reference: patent publication EP0450065A1, “ANTIVIRAL AGENT” (priority 1988, dated 1990)
Read-outs that look alike come from different tables or passages of the source.

Experiments:
[1] = tested on: herpes simplex virus type 1 (KOS strain); test: Control of CPE (cytopathic effect) manifestation in vero cells; assay type: cell-based; settings: HSV-1 (KOS), Example 7; for Cytopathic effect [CPE] (3days) △CPE / Cytopathic effect [CPE] (5days) △CPE: difference from control
Protocol: (§1) Vero cells cultured and grown in a monolayer on microplates to test for cytopathic effect due to viral infection, with solutions of Compound A diluted to varying ratios and solutions of virus diluted to varying ratios added severally thereto in a volume of 0.1 ml, were cultured under the conditions of 5% CO₂ and 37°C and were examined for CPE manifestation under a microscope. The observation was continued for five to six days.
(§2) The degree of CPE brought about by viral infection was rated on the five-point scale, wherein 3 stands for CPE observed on not less than 75% of cultured cells, 2 for CPE observed on 50% of cultured cells, 1 for CPE observed on 25% of cultured cells, 0.5 for occurrence of one to two extremely minute DPE spots, and 0 for perfect absence of recognizable CPE. The CPE scores obtained at the four holes in each microplate were averaged and the difference of the average from the average obtained in the control (omitting the treatment with a chemical) was reported as ΔCPE.
(§3) Antiviral activity of Compound A and Compound B against herpes simplex virus type 1 (KOS strain) The test was carried out by following the procedure of Example 3.

[2] = tested on: herpes simplex virus type 1 (KOS strain); test: One-step growth of virus, plaque assay with vero cells; assay type: cell-based; settings: for Intracellular virus Average / inhibition at 30 µg/mL / log reduction at 30 µg/mL / Intracellular virus Control ratio % / Intracellular virus Control ratio -logT/C: 24 hours; for inhibition at 30 µg/mL / log reduction at 30 µg/mL: Human alphaherpesvirus 1, Vero, 24 h; for inhibition at 30 µg/mL: read-out: Intracellular virus Control ratio %; for log reduction at 30 µg/mL: read-out: Intracellular virus Control ratio -logT/C
Protocol: Antiviral activity of Compound A and Compound B against one-step growth of herpes simplex virus type 1 (KOS strain) Cells grown in a monolayer, with a sample of a given compound diluted in a varying ratio added, were pretreated for 15 minutes. Then, the pretreated cells were infected with the herpes simplex virus type 1 (KOS strain) at an infecting ratio of 0.25 and left standing for 24 hours. At the end of the standing, the intracellular and extracellular amounts of virus were determined by the plaque assay with vero cells.

[3] = tested on: herpes simplex virus type 1 (HF strain); test: 50% Tissue culture infective dose (TCID50), Read-Munch method, negative logarithm of virus dilution; assay type: cell-based
Protocol: (§4) In vitro antiviral activity of Compound A against herpes simplex virus type 1 (HF strain) Compound A was tested for antiviral effect by the following two methods.
(§5) The amount of virus infecting 50% of tissues (TCID₅₀) was determined by the Read-Munch method and expressed in negative logarithm of the maximum radio of dilution of virus. The difference of the amount thus determined from the amount found in the control (omitting the treatment with a chemical) was reported as ΔTCID₅₀. A sample whose ΔCPE's found on the last day of observation and on each of the days spent for the observation exceeded 1.0 was evaluated as effective.
(§6) In vitro antiviral effect of Compound A against herpes simplex virus type 1 (HF strain) The test was carried out by following the procedure of Example 3.

[4] = tested on: herpes simplex virus type 1 (HF strain); test: Control of CPE (cytopathic effect) manifestation in vero cells; assay type: cell-based; design: key to Cytopathic effect [CPE] (3days) Average / Cytopathic effect [CPE] (5days) Average / Cytopathic effect [CPE] (6days) Average: CPE score: 0 none, 0.5 minute spots, 1 = 25%, 2 = 50%, 3 = ≥75% cells; key to Cytopathic effect [CPE] (3days) △CPE / Cytopathic effect [CPE] (5days) △CPE / Cytopathic effect [CPE] (3days) ΔCPE / Cytopathic effect [CPE] (6days) ΔCPE: ΔCPE = difference of average CPE score (0–3 scale) from control; settings: 20 μg/ml, HSV-1 (HF strain), Example 5
Protocol: as §4, §1, §2, §6

[5] = tested on: herpes simplex virus type 2 (169 strain); test: 50% Tissue culture infective dose (TCID50), Read-Munch method, negative logarithm of virus dilution; assay type: cell-based; design: key to Cytopathic effect [CPE] (5days) TCID50 / Cytopathic effect [CPE] (3days) TCID50 / Cytopathic effect [CPE] (6days) TCID50: negative log of maximum virus dilution infecting 50% of tissues; settings: 20 μg/ml, HSV-2 (169), Example 6
Protocol: as §5
(§7) In vitro antiviral activity of Compound A against herpes simplex virus type 2 (169 strain) The test was carried out by following the procedure of Example 3.

[6] = tested on: herpes simplex virus type 1 (KOS strain); test: as above; assay type: cell-based; design: key to Cytopathic effect [CPE] (5days) TCID50 / Cytopathic effect [CPE] (3days) TCID50: TCID50 as negative log of maximum virus dilution ratio; key to Cytopathic effect [CPE] (5days) △TCID50 / Cytopathic effect [CPE] (3days) △TCID50: difference from control TCID50, in negative log of virus dilution; settings: HSV-1 (KOS), Example 7; for log reduction at 30 µg/mL / Cytopathic effect [CPE] (3days) △TCID50 / Cytopathic effect [CPE] (5days) △TCID50: difference from control
Protocol: as §5, §3

[7] = tested on: herpes simplex virus type 2 (169 strain); test: Control of CPE (cytopathic effect) manifestation in vero cells; assay type: cell-based; design: key to Cytopathic effect [CPE] (3days) Average / Cytopathic effect [CPE] (5days) Average / Cytopathic effect [CPE] (6days) Average: CPE score 0-3: 3 = ≥75% cells, 2 = 50%, 1 = 25%, 0 = none; key to Cytopathic effect [CPE] (3days) △CPE / Cytopathic effect [CPE] (5days) △CPE / Cytopathic effect [CPE] (6days) △CPE: difference of mean CPE score (0-3 scale) from untreated control; settings: 20 μg/ml, HSV-2 (169), Example 6
Protocol: as §1, §2, §7

[8] = tested on: vero cells; settings: control ratio on propagation of vero cells, 72hr
Protocol: Samples of the control group contained 0.1 ml of a culture solution (an Eagle's MEM culture medium containing 10% fetal bovine serum).
The test was conducted by using three culture tubes per group, culturing the cells in the tubes at 37°C for three days, and taking count of live cells by the dye-exclusion method.

[9] = tested on: vero cells; settings: african green monkey
Protocol: Compound A and Compound B were severally dissolved in distilled water in a concentration of 5 mg/ml, to prepare master solutions. Each of the master solutions was suitably diluted with an Eagle's MEM culture medium containing 10% fetal bovine serum. A 0.2-ml portion of the resultant dilution product was placed on vero cells cultured in advance on a microplate and grown in a monolayer, cultured further thereon at 37°C for three to five days. Samples taken severally after three days'and five days'culture were placed under a microscope and tested for cytopathogenic effect brought about by a chemical agent.

[10] = 20 μg/ml, HSV-1 (HF strain), Example 5

O=c1[nH]c(=O)n([C@H]2C[C@H](O)[C@@H](CO)O2)cc1I [IDU, reference compound]
Cytopathic effect [CPE] (3days) Average ([1]; 30 μg/ml): 1.0
Cytopathic effect [CPE] (5days) Average ([1]; 30 μg/ml): 2.0
Cytopathic effect [CPE] (3days) △CPE ([1]; 30 μg/ml): 1.0
Cytopathic effect [CPE] (5days) △CPE ([1]; 30 μg/ml): 1.0
Intracellular virus Average ([2]; 30 μg/ml, extracellular virus): 7.50×10^3 /dish
Intracellular virus Average ([2]; 30 μg/ml): 1.00×10^6 /dish
inhibition at 30 µg/mL ([2]; 30 μg/ml, extracellular virus): > 99.9%
log reduction at 30 µg/mL ([2]; 30 μg/ml, extracellular virus): 3.6
inhibition at 30 µg/mL ([2]; 30 μg/ml): 99.8%
log reduction at 30 µg/mL ([2]; 30 μg/ml): 2.61
Cytopathic effect [CPE] (3days) TCID50 [3, 10]: 6.3
Cytopathic effect [CPE] (6days) TCID50 [3, 10]: 6.5
log reduction at 20 µg/mL ([3]; Human alphaherpesvirus 1, 72 h, read-out: Cytopathic effect [CPE] (3days) ΔTCID50): 0
log reduction at 20 µg/mL ([3]; Human alphaherpesvirus 1, 144 h, read-out: Cytopathic effect [CPE] (6days) ΔTCID50): -0.2
Cytopathic effect [CPE] (3days) Average [4]: 2.25
Cytopathic effect [CPE] (6days) Average [4]: 3.0
Cytopathic effect [CPE] (3days) ΔCPE ([4]; difference from control): 0.5
Cytopathic effect [CPE] (6days) ΔCPE ([4]; difference from control): 0
Cytopathic effect [CPE] (3days) TCID50 [5]: 5.3
Cytopathic effect [CPE] (6days) TCID50 [5]: 5.5
log reduction at 20 µg/mL ([5]; Human alphaherpesvirus 2, 72 h, difference from control, read-out: Cytopathic effect [CPE] (3days) △TCID50): 1.4
Cytopathic effect [CPE] (3days) TCID50 ([6]; 30 μg/ml): 5.3
Cytopathic effect [CPE] (5days) TCID50 ([6]; 30 μg/ml): 6.0
log reduction at 30 µg/mL ([6]; Human alphaherpesvirus 1, 72 h, 30 μg/ml, read-out: Cytopathic effect [CPE] (3days) △TCID50): 0.2
log reduction at 30 µg/mL ([6]; Human alphaherpesvirus 1, 120 h, 30 μg/ml, read-out: Cytopathic effect [CPE] (5days) △TCID50): 0.3
Cytopathic effect [CPE] (3days) Average [7]: 0.75
Cytopathic effect [CPE] (6days) Average [7]: 1.25
Cytopathic effect [CPE] (3days) △CPE ([7]; difference from control): 1.75
Cytopathic effect [CPE] (6days) △CPE ([7]; difference from control): 1.75

K₇PW₁₀Ti₂O₄₀.6H₂O [Compound B]
Cytopathic effect [CPE] (3days) Average ([1]; 100 μg/ml): 0
Cytopathic effect [CPE] (5days) Average ([1]; 100 μg/ml): 0
Cytopathic effect [CPE] (3days) △CPE ([1]; 100 μg/ml): 2.0
Cytopathic effect [CPE] (5days) △CPE ([1]; 100 μg/ml): 3.0
Cytopathic effect [CPE] (3days) Average ([1]; 200 μg/ml): 0
Cytopathic effect [CPE] (5days) Average ([1]; 200 μg/ml): 0
Cytopathic effect [CPE] (3days) △CPE ([1]; 200 μg/ml): 2.0
Cytopathic effect [CPE] (5days) △CPE ([1]; 200 μg/ml): 3.0
Intracellular virus Average ([2]; 50 μg/ml, extracellular virus): 5.83×10^5 /dish
Intracellular virus Control ratio % ([2]; 50 μg/ml, extracellular virus): 98.1%
Intracellular virus Control ratio -logT/C ([2]; 50 μg/ml, extracellular virus): 1.711
Intracellular virus Average ([2]; 50 μg/ml): 6.00×10^5 /dish
Intracellular virus Control ratio % ([2]; 50 μg/ml): 99.8%
Intracellular virus Control ratio -logT/C ([2]; 50 μg/ml): 2.831
Intracellular virus Average ([2]; 100 μg/ml, extracellular virus): 2.10×10^5 /dish
Intracellular virus Control ratio % ([2]; 100 μg/ml, extracellular virus): 99.3%
Intracellular virus Control ratio -logT/C ([2]; 100 μg/ml, extracellular virus): 2.155
Intracellular virus Average ([2]; 100 μg/ml): 1.12×10^5 /dish
Intracellular virus Control ratio -logT/C ([2]; 100 μg/ml): 3.560
Intracellular virus Control ratio % ([2]; 100 μg/ml, 1440 min): >99.9%
Intracellular virus Average ([2]; 200 μg/ml, extracellular virus): 4.95×10^4 /dish
Intracellular virus Control ratio % ([2]; 200 μg/ml, extracellular virus): 99.8%
Intracellular virus Control ratio -logT/C ([2]; 200 μg/ml, extracellular virus): 2.783
Intracellular virus Average ([2]; 200 μg/ml): 1.07×10^3 /dish
Intracellular virus Control ratio -logT/C ([2]; 200 μg/ml): 5.580
Intracellular virus Control ratio % ([2]; 200 μg/ml, 1440 min): >99.9%
control of the intracellular and extracellular viruses in the one-step growth ([2]; concentration not given, 1440 min): not less than 99.9%
Ratio (%) ([8]; 100 μg/ml): absolutely no effect
Ratio (%) ([8]; 200 μg/ml): absolutely no effect
maximum nontoxic doses (MNTD) [9]: > 200 µg/mL
Cellular toxity (3 days) Maximum nontoxic does ([9]; 72 h): >200 µg/mL
Cellular toxity (5 days) Maximum nontoxic does ([9]; 120 h): >200 µg/mL
Cytopathic effect [CPE] (3days) TCID50 ([6]; 100 μg/ml): 3.5
Cytopathic effect [CPE] (5days) TCID50 ([6]; 100 μg/ml): 3.5
Cytopathic effect [CPE] (3days) △TCID50 ([6]; 100 μg/ml): 2.0
Cytopathic effect [CPE] (5days) △TCID50 ([6]; 100 μg/ml): 2.5
Cytopathic effect [CPE] (3days) TCID50 ([6]; 200 μg/ml): 3.5
Cytopathic effect [CPE] (5days) TCID50 ([6]; 200 μg/ml): 3.5
Cytopathic effect [CPE] (3days) △TCID50 ([6]; 200 μg/ml): 2.0
Cytopathic effect [CPE] (5days) △TCID50 ([6]; 200 μg/ml): 2.5
